US5891435A, “Methods and compositions for delaying or preventing the onset of autoimmune disease” (Research Corporation Technologies, Inc., priority 1993, dated 1999)
Entries after “also recorded” stand apart in the source; their conditions may differ.

Experiments:
[1] = system: NOD mice; assay: Subcutaneous immunization in IFA, development of diabetes in NOD mice; format: in vivo, mouse; conditions: for Protective effect against diabetes (in words): subcutaneous immunization in IFA; for IDD rate (frequency of diabetes): subcutaneous immunization in IFA from 4 weeks of age, FIG. 1
Description: NOD/Uf mice (Winter [1990] Diabetes 39:975-982) were bred and maintained in the temperature and light controlled facility of the Department of Pathology at the University of Florida. After weaning at 3-4 weeks of age, littermates were housed in groups of no more than 6 per cage. A soy and […]-based chow (Harlan, Madison, Wis.) and water were available ad libitum. Typical diabetes rates in the NOD/Uf colony at 40 weeks of age are near 90% in females and 30% in males. Littermates were divided into 3 groups. […] Complete Freund's adjuvant was avoided because of its known protective effect in NOD mice (Qin et al. [1993] J. Immunol. 150:2072-2080). […] Treatments started at 4 weeks of age and subsequent immunizations were administered at ages 12, 16, and 22 weeks. […] In addition, 2 new treatments were assessed. […] As in the first study, immunizations were given in IFA commencing at 4 weeks of age, but subsequent injections were given at 8 week intervals. In a third NOD mouse experiment, controlled by 18, 0.9% saline+IFA-treated littermates (10 female and 8 male), 18 mice received 250 μg BSA (Sigma) in IFA (10 female and 8 male). A third group of 21 littermates was treated with 100 μg of the 17 amino acid component peptide of BSA called ABBOS in IFA (11 female and 10 male). This peptide has been proposed as an environmental molecular mimic of an endogenous islet protein. Venous blood samples, obtained from the tail vein or retro-orbital sinus were tested serially for glucose and IAA. Blood glucose was determined using a Chemstrip bG (Boehringer Mannheim) read visually as verified by a reflectance meter. Diabetes was diagnosed when the whole blood glucose level was greater than 240 mg/dl (13.3 mmol/L). A liquid phase competitive radiobinding assay using 1:3 diluted mouse sera was used to determine IAA […] al. [1987] Diabetes 36:1286-1291). Normal murine levels, established from a survey of 48 mice from six different strains that were not susceptible to spontaneous diabetes were considered to be below 180 nU/ml (3 standard deviations above mean). The method of Kaplan and Meier (Kaplan and Meier [1958] J. Am. Stat. Assoc. 53:457-481) was used to construct life tables and the logrank Chi-square statistic was used to compare them (Mantel, N. (1966) Cancer Chemother. Rep. 50:163-170). A Student t-test or one-way ANOVA was used when appropriate to compare means. Fisher's exact test was applied to compare frequencies in the adoptive transfer studies.

[2] = system: insulin antibodies; assay: Insulin antibodies (IAA) in serum of immunized NOD mice, competitive radiobinding assay; format: in vivo, mouse; conditions: NOD mice immunized subcutaneously in IFA
Experimental: Littermates were divided into 3 groups. […] Complete Freund's adjuvant was avoided because of its known protective effect in NOD mice (Qin et al. [1993] J. Immunol. 150:2072-2080). […] Treatments started at 4 weeks of age and subsequent immunizations were administered at ages 12, 16, and 22 weeks. […] In addition, 2 new treatments were assessed. […] As in the first study, immunizations were given in IFA commencing at 4 weeks of age, but subsequent injections were given at 8 week intervals. In a third NOD mouse experiment, controlled by 18, 0.9% saline+IFA-treated littermates (10 female and 8 male), 18 mice received 250 μg BSA (Sigma) in IFA (10 female and 8 male). A third group of 21 littermates was treated with 100 μg of the 17 amino acid component peptide of BSA called ABBOS in IFA (11 female and 10 male).
(§1) Venous blood samples, obtained from the tail vein or retro-orbital sinus were tested serially for glucose and IAA. Blood glucose was determined using a Chemstrip bG (Boehringer Mannheim) read visually as verified by a reflectance meter. Diabetes was diagnosed when the whole blood glucose level was greater than 240 mg/dl (13.3 mmol/L). A liquid phase competitive radiobinding assay using 1:3 diluted mouse sera was used to determine IAA titer (Vardi et al. [1987] Diabetes 36:1286-1291). Normal murine levels, established from a survey of 48 mice from six different strains that were not susceptible to spontaneous diabetes were considered to be below 180 nU/ml (3 standard deviations above mean).

[3] = system: irradiated NOD recipients; assay: Adoptive co-transfer of splenocytes from immunized and acutely diabetic NOD mice to irradiated NOD recipients; format: in vivo, mouse; conditions: for Transfer of protection by splenocytes of immunized mice (in words): irradiated NOD recipients, adoptive co-transfer
Description: At age 10 weeks, splenocyte pools were obtained from these mice, each pool comprising cells from 3 similarly treated animals. These "modulator" splenocytes were mixed with an equal number of pooled splenocytes that had been harvested from 6 untreated, acutely diabetic NOD mice. Six hours after a 700 Rad dose of γ-irradiation, 10 previously untreated, non-diabetic, 10 week old male NOD mice received an intravenous infusion containing a total of 40×10^6 cells from one of the mixtures, i.e. 3 diluent-, 3 A chain-, and 4 B chain-treated animals.
as §1
(§2) Non-diabetic mice in the subcutaneous immunization protocol that survived to 40 weeks were sacrificed at that age. Their pancreata were removed, fixed in 10% formalin and stained for light microscopic examination with hematoxylin and eosin. The slides were coded and a consensus insulitis score was determined by 3 examiners before the code was broken. The presence of insulitis was scored using a previously described dual scale that assesses both the severity of immune infiltration and the cytoarchitectural disruption. Finally, the pancreata from the modulator cell donors in the adoptive transfer studies were similarly reviewed at 10 weeks of age. Pancreata from 8 of 10 recipients (only 2 of 4 mice receiving B chain modulator cells were sacrificed) were analyzed 20 days after their adoptive transfer.
The method of Kaplan and Meier (Kaplan and Meier [1958] J. Am. Stat. Assoc. 53:457-481) was used to construct life tables and the logrank Chi-square statistic was used to compare them (Mantel, N. (1966) Cancer Chemother. Rep. 50:163-170). A Student t-test or one-way ANOVA was used when appropriate to compare means. Fisher's exact test was applied to compare frequencies in the adoptive transfer studies. P-values are 2-sided.

[4] = system: NOD mice; assay: Insulitis score / pancreatic histology of immunized NOD mice; format: in vivo, mouse; conditions: NOD mice immunized subcutaneously in IFA; non-diabetic survivors at 40 weeks
Experimental: as §2

[5] = system: NOD mice; conditions: cited from earlier work
[6] = irradiated male NOD recipients of splenocytes from treated donors plus diabetic donors, diabetic/total

Substance | Protective effect against diabetes (in words) [1] | IDD rate (frequency of diabetes) [1] | Insulin antibody level / insulin binding activity in serum (in words) [2] | Number of Diabetic Mice, Day 10 [3, 6] | Number of Diabetic Mice, Day 20 [3, 6] | Insulitis / pancreatic histology (in words) [4] | other results
A chain: recombinant human A chain insulin, given in IFA | had no protective effects | 53% | high insulin binding activity in serum | 0/3 | 3/3 | – | Protective effect against diabetes (in words) ([1]; listed as A chain insulin): did not however alter the course of IDD; Insulin antibody level / insulin binding activity in serum (in words) ([2]; listed as A): stimulated high levels of insulin antibodies
B chain: recombinant human B chain insulin, given in IFA | resulted in protection from diabetes; also recorded: protection conferred by subcutaneous insulin immunization was duplicated; also recorded: all of the protection was localized to the B chain | 16% | stimulated high levels of insulin antibodies; also recorded: high insulin binding activity in serum | 0/4 | 0/4 | neither insulin nor B chain immunizations diminished insulitis | Protective effect against diabetes (in words) ([1]; listed as B chain of insulin): reproduced the protective effect of insulin; also recorded: excellent protection against IDD; Protective effect against diabetes (in words) ([1]; listed as insulin B chain): protection equal or superior to that conferred by intact insulin; Time for which diabetes was prevented after co-transfer ([3]; co-transfer of splenocytes from treated and acutely diabetic mice, p=0.03): at least 75 days; Transfer of protection by splenocytes of immunized mice (in words) [3]: able to confer the protective effect on irradiated NOD recipients; Transfer of protection by splenocytes of immunized mice (in words) ([3]; listed as B chain of insulin): able to protect irradiated, recipient mice; Number of Diabetic Mice, Day 75 [3, 6]: 0/2
bovine serum albumin [BSA, reference compound] | had no protective effects | – | – | – | – | – | –
glutamic acid decarboxylase [human GAD65] | onset of diabetes has been delayed | – | – | – | – | – | –
insulin: purified porcine NPH insulin (first study) or recombinant human NPH insulin (second study, FIG. 1), given subcutaneously in incomplete Freund's adjuvant [reference compound] | significantly reduced the incidence of diabetes; also recorded: strong protection for diabetes was achieved; also recorded: significantly reduce the incidence of IDD; also recorded: excellent protection against IDD | under 13% | – | – | – | incidence and severity of insulitis were little affected, or actually increased; also recorded: not significantly reduced; also recorded: neither insulin nor B chain immunizations diminished insulitis | Protection from hyperglycemia and insulitis (in words) ([5]; extended prophylactic course of daily subcutaneous injections, NOD mice (Atkinson et al. 1990)): protected NOD mice from both hyperglycemia and islet infiltration by mononuclear leukocytes (insulitis); Response to oral insulin (in words) ([5]; oral, NOD mice (Zhang et al. 1991)): beneficial response
